In patent publication US11425924B2, “Composition and method for controlled-release of amino acids” (Glanbia Nutritionals, Ltd., priority 2018, dated 2022):
In brackets after ≈: the same amount, converted by molar mass.

Key:
[1] = Zeta potential measurements; format: physicochemical; conditions: uncoated
Description: Zeta potential analysis was performed in on a NanoBrook ZetaPlus Zeta Plus instrument from Brookhaven Instruments.

[2] = except at very acidic pH; cited from earlier work

SMILES: CC(C)C[C@H](N)C(=O)O [Leucine (L-Leucine), L-Leucine]
- surface charge [1]: positive charge
- solubility in water [2]: 24.3 mg/mL (≈ 185 mM)
